Test results reported in patent US20090123536A1, “Oral Pharmaceutical Form of Losartan” (Flamel Technologies, S.A., priority 2005, published 2009).
In brackets after ≈: the same amount, converted by molar mass.

Assay: Solubility of losartan as a function of pH
Assay type: physicochemical
Details: water
Text: It is thus conceived that for losartan, whose solubility depends greatly on the gastric pH (cf. table below), the solubilization, and thus ultimately the plasmatic concentration profile, is subject to great variation from one individual to another and, for the same individual, from one day to another.

solubility (aqueous buffer, pH 3.0, 37° C.): 100 µg/mL (≈ 0.236 mM) | solubility (aqueous buffer, pH 4.5, 37° C.): 120 µg/mL (≈ 0.284 mM) | solubility (aqueous buffer, pH 5.0, 37° C.): 300 µg/mL (≈ 0.709 mM) | solubility (aqueous buffer, pH 6.0, 37° C.): 1200 µg/mL (≈ 2.84 mM) | solubility (aqueous buffer, pH 6.8, 37° C.): 10000 µg/mL (≈ 23.6 mM) | solubility (aqueous buffer, pH 8.5, 37° C.): > 550000 µg/mL | solubility (simulated gastric fluid, pH 1.4, 37° C.): 1000 µg/mL (≈ 2.36 mM) | solubility (simulated gastric fluid, pH 2.0, 37° C.): 600 µg/mL (≈ 1.42 mM)
Compound: CCCCc1nc(Cl)c(CO)n1Cc1ccc(-c2ccccc2-c2nn[nH]n2)cc1 [losartan, {2-butyl-4-chloro-1-[4-[2-(1H-tetrazol-5-yl)phenyl]benzyl]-1H-imidazol-5-yl}methanol]
